From patent publication US9249110B2, “Substituted quinoxalines as B-raf kinase inhibitors” (NEUPHARMA, INC., priority 2011, dated 2016) come the findings set out here.

By pIC50 is commonly meant −log10 of the IC50, conventionally taken in molar units. A low value points to a high IC50. The term inhibition denotes the share of the control response that was lost under treatment. High values mean a response far below the control, low ones a response near the control.

For one test, the system named is A549 cells. The test can be described thus: Inhibition of cancer cell growth, MTT assay, A549 cells. In kind it is cell-based. The note with it: Homo sapiens, 72 h compound exposure. The procedure:
(§1) Inhibition of cell growth by compounds was measured using MTT assay (Mosmann, T., Journal of Immunological Methods, 1983, 65, 55-63). Tumor cell lines were purchased from ATCC (American Type Culture Collection, Manassas, Va.). All cell lines were maintained in RPMI 1640 (Hyclone) supplemented with 10% fetal bovine serum (FBS, Hyclone), glutamine (2 mM, Hyclone), and antibiotics (penicillin 100 U/mL and streptomycin 50 μg/mL) at 37° C. in a humidified atmosphere of 5% CO2 in air. Taxol (as a positive control, Sigma) and compounds were dissolved in DMSO (Sigma), and the final concentration of DMSO in the medium was 1%. Tumor cells were plated in 96-well plates at densities of about 4000 cells/well of a 96-well plate and allowed to adhere/grow for 24 h. They were then treated with various concentrations of drug for 72 h. 3-(4,5-Dimethylthiazol-2-yl)-2,5-diphenyltetrazolium bromide (MTT, Sigma) was used to determine the number of viable cells at the time of compound addition and the number of cells remaining after 72 h compound exposure. The number of cells remaining after 72 h was compared to the number of viable cells at the time of compound addition by measuring the absorbance at 570 nm, allowing for the calculation of growth inhibition.
(§2) All concentrations of compounds were tested in triplicate and controls were averaged over 4 wells. IC50 was calculated by plotting the concentration of compound vs the percentage of inhibition in treated wells using GraphPad Prism 5. […] The scale utilized in Table 4 is as follows: +++ less than 1000 nM, ++ between 1000 and 5000 nM, and + greater than 5000 nM.
(Formazan colour is commonly taken as a measure of viable cells.)

The target of a further test is T1, BRAF (Homo sapiens, UniProt P15056).
T1 construct: purchased Invitrogen
Kind of test: Z′-LYTE kinase inhibition assay against BRAF (Invitrogen). It is filed as biochemical. The note with it: 1 μM compound, Z′-LYTE method. How it is done:
(§3) Inhibitory activities of compounds against BRAF or BRAF V600E were measured by Invitrogen using Z′-LYTE® Method as briefly described in the following.
(§4) 4× Test compounds are dissolved in 1% DMSO. […] ATP solutions are diluted to a 4×ATP working concentration in Kinase Buffer (50 mM HEPES pH 7.5, 0.01% BRIJ-35, 10 mM MgCl2, 1 mM EGTA).
(§5) Reaction starts by 30-second shaking of mixture consisting of 2.5 μL4× test compound, […] and 2.5 μL 4×ATP Solution on Bar-coded Corning, low volume NBS, black 384-well plate (Corning Cat. #3676). Then the mixture is incubated for 60-minute at room temperature for the kinase reaction, followed by addition of 5 μL of a 1:1024 dilution of development reagent A and 30-second plate shake. The mixture is then incubated for another 60-minute at room temperature for development reaction. Finally fluorescence is read by plate reader.

The next test relates to A375 cells. Kind of test: Inhibition of cancer cell growth, MTT assay, A375 cells. In kind it is cell-based. The note with it: Homo sapiens, A-375, 72 h compound exposure. How it is done:
as §1, §2

For the next test, the target named is T2, BRAF V600E (Homo sapiens, UniProt P15056, V600E).
T2 construct: purchased Invitrogen
Kind of test: Z′-LYTE kinase inhibition assay against BRAF V600E (Invitrogen). The note with it: 1 μM compound, Z′-LYTE method. In kind it is biochemical. How it is done:
as §3, §4, §5

A further test deals with T3, KDR (VEGFR2) (Homo sapiens, UniProt P35968).
T3 construct: purchased Invitrogen
Kind of test: Z′-LYTE kinase inhibition assay against KDR (Invitrogen). It is filed as biochemical. The note with it: 1 μM compound, Z′-LYTE method. The procedure:
Inhibitory activities of compounds against KDR (VEGFR2) were also measured by Invitrogen using Z′-LYTE® Method as described above with the following modification. The 2×KDR (VEGFR2)/Tyr 01 mixture is prepared in 50 mM HEPES pH 7.5, 0.01% BRIJ-35, 10 mM MgCl2, 1 mM EGTA. The final 10 μL Kinase Reaction consists of 0.5-11.7 ng KDR (VEGFR2) and 2 μM Tyr 01 in 50 mM HEPES pH 7.5, 0.01% BRIJ-35, 10 mM MgCl2, 1 mM EGTA. After the 1 hour Kinase Reaction incubation, 5 μL of a 1:256 dilution of Development Reagent B is added. […] The scale utilized in Table 3 is as follows: ++ more than 70% inhibition and + less than 70% inhibition.

pIC50: −log10 of the molar value.

T1 sequence (P15056 whole entry): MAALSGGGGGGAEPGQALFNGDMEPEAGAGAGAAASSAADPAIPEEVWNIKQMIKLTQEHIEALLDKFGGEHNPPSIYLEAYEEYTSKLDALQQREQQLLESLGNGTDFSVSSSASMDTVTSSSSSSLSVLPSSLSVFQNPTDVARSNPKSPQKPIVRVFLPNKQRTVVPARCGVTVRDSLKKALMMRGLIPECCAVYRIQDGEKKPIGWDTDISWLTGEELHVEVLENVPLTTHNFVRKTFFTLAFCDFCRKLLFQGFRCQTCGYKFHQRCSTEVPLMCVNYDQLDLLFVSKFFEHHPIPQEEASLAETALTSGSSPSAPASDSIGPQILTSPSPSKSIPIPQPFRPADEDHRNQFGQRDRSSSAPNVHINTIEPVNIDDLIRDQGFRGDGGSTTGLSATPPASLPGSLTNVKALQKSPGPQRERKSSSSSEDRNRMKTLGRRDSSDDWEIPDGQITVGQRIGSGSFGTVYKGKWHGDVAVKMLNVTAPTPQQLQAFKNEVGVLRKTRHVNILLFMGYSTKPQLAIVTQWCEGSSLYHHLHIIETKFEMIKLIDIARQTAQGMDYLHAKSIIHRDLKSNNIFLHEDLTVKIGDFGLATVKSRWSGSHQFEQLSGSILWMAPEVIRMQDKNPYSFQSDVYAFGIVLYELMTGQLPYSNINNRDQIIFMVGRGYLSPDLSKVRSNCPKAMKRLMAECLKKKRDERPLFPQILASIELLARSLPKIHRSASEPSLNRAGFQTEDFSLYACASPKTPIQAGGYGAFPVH
T3 sequence (P35968 20-1356): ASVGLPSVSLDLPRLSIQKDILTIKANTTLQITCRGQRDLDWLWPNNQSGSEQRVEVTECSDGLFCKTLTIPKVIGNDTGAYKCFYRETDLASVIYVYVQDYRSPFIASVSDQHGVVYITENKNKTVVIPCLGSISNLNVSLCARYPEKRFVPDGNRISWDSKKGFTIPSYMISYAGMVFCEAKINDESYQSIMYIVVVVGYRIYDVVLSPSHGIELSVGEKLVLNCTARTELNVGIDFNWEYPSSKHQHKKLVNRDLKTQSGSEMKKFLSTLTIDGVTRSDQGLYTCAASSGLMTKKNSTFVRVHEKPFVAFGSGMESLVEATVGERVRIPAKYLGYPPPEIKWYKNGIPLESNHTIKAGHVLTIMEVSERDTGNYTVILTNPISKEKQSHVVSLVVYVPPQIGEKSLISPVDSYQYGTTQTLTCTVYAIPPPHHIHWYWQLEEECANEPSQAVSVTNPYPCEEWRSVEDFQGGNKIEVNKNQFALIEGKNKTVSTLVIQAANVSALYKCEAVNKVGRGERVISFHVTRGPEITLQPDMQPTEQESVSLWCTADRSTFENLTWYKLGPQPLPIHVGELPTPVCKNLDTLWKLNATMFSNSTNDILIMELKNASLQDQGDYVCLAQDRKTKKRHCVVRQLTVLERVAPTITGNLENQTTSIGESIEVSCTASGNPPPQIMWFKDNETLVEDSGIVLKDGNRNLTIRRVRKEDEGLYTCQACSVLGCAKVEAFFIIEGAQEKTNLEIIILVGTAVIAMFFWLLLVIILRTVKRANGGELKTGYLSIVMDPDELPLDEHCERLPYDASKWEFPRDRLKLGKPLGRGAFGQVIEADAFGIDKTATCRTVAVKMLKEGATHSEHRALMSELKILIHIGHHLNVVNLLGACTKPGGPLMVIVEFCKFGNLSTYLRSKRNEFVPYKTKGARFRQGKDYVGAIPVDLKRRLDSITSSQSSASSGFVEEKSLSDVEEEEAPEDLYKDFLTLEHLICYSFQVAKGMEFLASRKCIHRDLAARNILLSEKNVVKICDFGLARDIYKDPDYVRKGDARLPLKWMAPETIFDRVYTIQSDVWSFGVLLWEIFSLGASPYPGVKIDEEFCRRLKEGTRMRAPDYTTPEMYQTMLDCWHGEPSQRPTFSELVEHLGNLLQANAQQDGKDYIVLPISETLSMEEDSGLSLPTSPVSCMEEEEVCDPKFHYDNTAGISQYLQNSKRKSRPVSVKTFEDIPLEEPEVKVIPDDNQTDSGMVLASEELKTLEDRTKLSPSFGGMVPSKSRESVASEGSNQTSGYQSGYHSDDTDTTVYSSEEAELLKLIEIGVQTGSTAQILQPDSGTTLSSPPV
T2 sequence (P15056 whole entry V600E): as the sequence (P15056 whole entry) above, with V600E counted along it

With `CCCS(=O)(=O)Nc1ccc(F)c(C(=O)c2ccc3ncc(C#N)nc3c2)c1F` [Compound C04, N-(3-(3-cyanoquinoxaline-6-carbonyl)-2,4-difluorophenyl)propane-1-sulfonamide], the pIC50 in the test with A549 cells and with A375 cells was > 6.00 in each case. Also, the inhibition at 1 µM is 70 to 89% against BRAF and > 89% against BRAF V600E.
Take `O=C(Nc1ccc(F)c(C(=O)c2ccc3nccnc3c2)c1F)c1cccc(C(F)(F)F)c1` [Compound C10, N-(2,4-difluoro-3-(quinoxaline-6-carbonyl)phenyl)-3-(trifluoromethyl)benzamide]: the negative logarithm of the IC50 (pIC50) in the test on A549 cells and in the test with A375 cells was < 5.30 in each case. The results for the inhibition at 1 µM at BRAF V600E and on KDR (VEGFR2) were 70 to 89% and > 70%, respectively.
On to `CCCS(=O)(=O)Nc1ccc(F)c(C(=O)c2ccc3ncc(-c4ccc(Cl)cc4)nc3c2)c1F` [Compound C02, N-(3-(3-(4-chlorophenyl)quinoxaline-6-carbonyl)-2,4-difluorophenyl)propane-1-sulfonamide], for which the pIC50 in the test with A549 cells and in the test on A375 cells was > 6.00 in each case. Further, the results for the inhibition at 1 µM at BRAF and against BRAF V600E were 70 to 89% and > 89%, respectively.
On to `O=C(Nc1ccc(F)c(C(=O)c2ccc3nccnc3c2)c1F)c1cccc(F)c1` [Compound C09, N-(2,4-difluoro-3-(quinoxaline-6-carbonyl)phenyl)-3-fluorobenzamide], for which the pIC50 in the test on A549 cells and in the test with A375 cells was < 5.30 in each case. The inhibition at 1 µM against BRAF V600E was 70 to 89%.
For `O=C(Nc1cccc(F)c1)Nc1ccc(F)c(C(=O)c2ccc3nccnc3c2)c1F` [Compound C07, 1-(2,4-difluoro-3-(quinoxaline-6-carbonyl)phenyl)-3-(3-fluorophenyl)urea], the pIC50 in the test with A549 cells is 5.30 to 6.00; with A375 cells, < 5.30. Further, the inhibition at 1 µM is 70 to 89% on BRAF V600E and < 70% at KDR (VEGFR2).
On to `CCCS(=O)(=O)Nc1ccc(F)c(C(=O)c2ccc3ncc(OC)nc3c2)c1F` [Compound C03, N-(2,4-difluoro-3-(3-methoxyquinoxaline-6-carbonyl)phenyl)propane-1-sulfonamide], for which the pIC50 in the test on A549 cells and with A375 cells was 5.30 to 6.00 in each case. The inhibition at 1 µM at BRAF was 70 to 89%; against BRAF V600E, > 89%.
On to `CCCS(=O)(=O)Nc1ccc(F)c(C(=O)c2ccc3nccnc3c2)c1F` [Compound C01, N-(2,4-difluoro-3-(quinoxaline-6-carbonyl)phenyl)propane-1-sulfonamide], for which the pIC50 with A549 cells and with A375 cells was > 6.00 each time. In addition, the inhibition at 1 µM on BRAF is 70 to 89%; against BRAF V600E, > 89%.
Turning to `O=C(Nc1ccc(Cl)c(C(F)(F)F)c1)Nc1ccc(F)c(C(=O)c2ccc3nccnc3c2)c1F` [Compound C08, 1-(4-chloro-3-(trifluoromethyl)phenyl)-3-(2,4-difluoro-3-(quinoxaline-6-carbonyl)phenyl)urea], the pIC50 was < 5.30 in the test with A549 cells and 5.30 to 6.00 in the test on A375 cells. Also, the inhibition at 1 µM on BRAF V600E and against KDR (VEGFR2) was < 70% throughout.
On to `CCCS(=O)(=O)Nc1ccc(F)c(C(=O)c2ccc3ncc(N4CCOCC4)nc3c2)c1F` [Compound C05, N-(2,4-difluoro-3-(3-morpholinoquinoxaline-6-carbonyl)phenyl)propane-1-sulfonamide], for which the pIC50 with A375 cells was 5.30 to 6.00.
Turning to `O=C(Nc1cccc(C(F)(F)F)c1)Nc1ccc(F)c(C(=O)c2ccc3nccnc3c2)c1F` [Compound C06, 1-(2,4-difluoro-3-(quinoxaline-6-carbonyl)phenyl)-3-(3-(trifluoromethyl)phenyl)urea], the pIC50 with A549 cells and in the test with A375 cells was < 5.30 throughout. In addition, the inhibition at 1 µM against BRAF V600E is 70 to 89%; against KDR (VEGFR2) it was < 70%.
